Source: patent publication US5538987A, “Imidazole ethers having a II antagonist activity” (Istituto Luso Farmaco D'Italia S.p.A., priority 1992, dated 1996)

What was measured:
[1] = biological target: T1, A II receptor (Oryctolagus cuniculus, UniProt P34976); test: inhibition of the A II-induced contraction in the rabbit aorta; type: cell-based; settings: in vitro, read-out: pA2 (converted)
T1 construct: A II-induced contraction in the rabbit aorta; from tissue; host or cells: rabbit aorta
T1 sequence (P34976 1-359): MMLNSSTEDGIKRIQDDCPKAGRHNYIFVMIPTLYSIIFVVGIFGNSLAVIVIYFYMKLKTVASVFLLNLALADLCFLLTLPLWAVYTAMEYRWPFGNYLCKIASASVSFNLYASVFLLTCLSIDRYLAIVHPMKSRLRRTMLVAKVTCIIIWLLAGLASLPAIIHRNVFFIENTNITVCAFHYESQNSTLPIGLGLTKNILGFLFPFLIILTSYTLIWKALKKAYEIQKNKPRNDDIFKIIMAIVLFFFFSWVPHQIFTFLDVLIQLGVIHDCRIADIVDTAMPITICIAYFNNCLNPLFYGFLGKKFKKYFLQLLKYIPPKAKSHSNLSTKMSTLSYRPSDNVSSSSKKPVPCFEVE
Text: (§1) The compounds described in the present invention act as antagonists at the A II receptor level.
(§2) For the characterization and the evaluation of the effectiveness of the compounds of the invention, in vitro tests (such as the inhibition of the A II-induced contraction in the rabbit aorta and the displacement of ^125 I-Sar^1 -Ile^8 -AT II or [^3 H] AT II in the rat adrenal cortex) and an in vivo test (the inhibition of the A II-induced pressory response in the ganglio-blocked normotensive rat) were selected.

[2] = biological target: A II receptor; test: receptor binding test: displacement of 125I-Sar1-Ile8-AT II or [3H] AT II in the rat adrenal cortex
Text: as §1, §2

Row | Kb [1] | Ki [2] | Structure (SMILES)
1 | 1.26 nM | 3.2 nM | CCCCc1nc(Cl)c(COCc2occc2C(=O)O)n1Cc1ccc(-c2ccccc2-c2nnn[nH]2)cc1 [2-butyl-5-[(3-carboxyfuran-2-yl)methoxymethyl]-4-chloro-1-[[2'-(1H-tetrazol-5-yl)-1,1'-biphenyl-4-yl]methyl]-1H-imidazole]
2 | 0.2 nM | 4.4 nM | CCCCc1nc(Cl)c(COCc2ccccc2C(=O)O)n1Cc1ccc(-c2ccccc2-c2nnn[nH]2)cc1 [ex. 18, 2-butyl-5-[(2-carboxyphenyl)methoxymethyl]-4-chloro-1-[[2'-(1H-tetrazol-5-yl)-1,1'-biphenyl-4-yl]methyl]-1H-imidazole]
